# How the values were obtained:
# Type in all cases: in vivo
# [1] = test system: female Albino Wistar rats; experiment: glucose tolerance test; conditions: 25, 50, 75 mg/kg body wt daily for four months; 6 h fast, 2 g/kg intraperitoneally, tail vein blood 0-120 min; p<0.01 ResArgin, p<0.05 resveratrol
# Procedure: (§1) To determine the efficacy of resveratrol-arginine conjugate, six month old female Albino Wistar rats were divided into seven groups (six rats per group) and given the following daily treatment for four months: • Group 1: Control; • Group 2: 25 mg ResArgin/kg body wt; • Group 3: 50 mg ResArgin/kg body wt; • Group 4: 75 mg ResArgin/kg body wt; • Group 5: 25 mg Resveratrol/kg body wt; • Group 6: 50 mg Resveratrol/kg body wt;
# Group 7: 75 mg Resveratrol/kg body wt. In one embodiment, glucose tolerance levels were tested via a glucose tolerance test and analysis was performed. Compared to the Control group, glucose tolerance was improved in the ResArgin and resveratrol groups (p<0.01 and p<0.05 respectively) over the experimental period.
# In one embodiment, glucose tolerance tests were performed after having the rats fast for 6 hours and injecting 2 g/kg body weight intraperitoneally. Blood was then collected from the tail vein at 0, 15, 30, 60 and 120 minutes after injection.
# [2] = test system: female Albino Wistar rats; experiment: hair regrowth assay; conditions: 25, 50, 75 mg/kg body wt daily for four months; dorsal hair plucked 1.5 cm x 1.5 cm, scored two weeks later from digital photographs
# Procedure: as §1
# In another embodiment, hair regrowth assay was done and quantified. Compared to the Control group, hair regrowth was improved in the ResArgin and resveratrol groups over the experimental period.
# In the hair regrowth assay, dorsal hair was removed by plucking from a square of approximately 1.5 cm×1.5 cm. Hair growth and re-growth was scored two weeks later on the basis of digital photographs.
# [3] = test system: female Albino Wistar rats; experiment: four month daily treatment study, investigated age related conditions overall; conditions: summary of the study; effects of ResArgin being more significant than those of resveratrol
# Procedure: as §1
# Based on the results of the study performed, the effective dosage of resveratrol arginine conjugate is 10 to 250 mg per kilogram of body weight for a period of at least two weeks.
structure (smiles),measurement,setting,value
Oc1ccc(C=Cc2cc(O)cc(O)c2)cc1 [resveratrol],glucose tolerance compared to the Control group,[1],improved
same,hair regrowth compared to the Control group,[2],improved
same,effect on the investigated age related conditions,[3],significantly improved

# — US20170119693A1, “Methods of Improving Glucose Tolerance, Hair Regrowth, and Bio-Availability” (priority 2015, published 2017)
